Assay results from patent publication US9233983B2, “Substituted hetero-bicyclic compounds, compositions and medicinal applications thereof” (ADVINUS THERAPEUTICS LIMITED, priority 2012, dated 2016).

Assays:
[1] = target: human Bruton's Tyrosine Kinase (Btk) (Homo sapiens (Human), UniProt Q06187); assay: Recombinant Human Bruton's Tyrosine Kinase (Btk) Inhibition Assay (HTRF KinEASE-TK); type: biochemical; settings: 20 ng/ml rhBtk, 77 μM ATP (KM), 1 μM TK-Biotin substrate, 90 min; read-out: hBTK IC50
mouse splenocytes = assay: Inhibition of B Cell Activation as Measured by CD69 Expression in Mouse Splenocytes; type: cell-based; settings: Splenocyte; C57/BL6 splenocytes, 3 ug/mL goat anti-mouse IgM, 18-20 hrs, CD69+ve cells within CD19; read-out: Mouse spleenocyte IC50
Summary of the method: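 Total mouse splenocytes pre-incubated with compounds (half-log dilutions; DMSO 200× stocks from 2 mM) 30 min at 37 °C, then stimulated with 3 ug/mL anti-mouse IgM for 18-20 hrs. CD69+ cells within CD19+ B cells quantified by flow cytometry; IC50 from variable-slope sigmoid dose-response fit.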

human Bruton's Tyrosine Kinase (Btk), sequence (Q06187 whole entry): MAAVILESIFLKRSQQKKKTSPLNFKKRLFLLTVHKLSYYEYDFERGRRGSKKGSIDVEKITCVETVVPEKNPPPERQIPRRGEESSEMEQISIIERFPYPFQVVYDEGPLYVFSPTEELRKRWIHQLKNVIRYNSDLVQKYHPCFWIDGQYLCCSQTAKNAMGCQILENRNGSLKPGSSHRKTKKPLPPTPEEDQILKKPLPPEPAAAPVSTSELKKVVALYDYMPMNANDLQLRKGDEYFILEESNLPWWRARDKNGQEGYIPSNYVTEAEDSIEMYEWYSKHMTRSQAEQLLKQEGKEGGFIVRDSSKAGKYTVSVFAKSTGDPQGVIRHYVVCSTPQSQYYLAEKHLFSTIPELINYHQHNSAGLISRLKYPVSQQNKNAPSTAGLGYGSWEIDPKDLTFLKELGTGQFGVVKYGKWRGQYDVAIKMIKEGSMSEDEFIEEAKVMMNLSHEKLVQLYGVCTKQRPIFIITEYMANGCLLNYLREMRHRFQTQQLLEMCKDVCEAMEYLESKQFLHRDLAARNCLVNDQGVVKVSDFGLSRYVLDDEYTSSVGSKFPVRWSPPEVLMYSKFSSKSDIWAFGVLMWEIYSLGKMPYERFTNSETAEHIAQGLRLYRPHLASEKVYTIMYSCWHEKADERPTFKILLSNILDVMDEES

IC50 [1] [nM]	IC50 (mouse splenocytes) [nM]	SMILES
1.7	7.5	CC1CN(Cc2ccc(-c3cc4c(-c5cccc(N6CCOc7cc(C8CC8)cc(F)c7C6=O)c5CO)ccnc4[nH]3)nc2)CC(C)N1C (stereo not shown) [Example I-14, 8-cyclopropyl-6-fluoro-4-[2-(hydroxymethyl)-3-[2-[5-[(3,4,5-trimethylpiperazin-1-yl)methyl]-2-pyridyl]-1H-pyrrolo[2,3-b]pyridin-4-yl]phenyl]-2,3-dihydro-1,4-benzoxazepin-5-one]
3	30	O=C1c2ccc(C3CC3)cc2OCCN1c1cccc(-c2ccnc3[nH]c(-c4ccc(CN5CCN(C6CC6)CC5)cn4)cc23)c1CO [Example I-5, 8-cyclopropyl-4-[3-[2-[5-[(4-cyclopropylpiperazin-1-yl)methyl]-2-pyridyl]-1H-pyrrolo[2,3-b]pyridin-4-yl]-2-(hydroxymethyl)phenyl]-2,3-dihydro-1,4-benzoxazepin-5-one]
9	87	CC1(O)CCN(C(=O)c2ccc(-c3cc4c(-c5cccc(N6CCOc7cc(C8CC8)ccc7C6=O)c5CO)ccnc4[nH]3)cc2)CC1 [Example L-2, 8-cyclopropyl-4-[2-(hydroxymethyl)-3-[2-[4-(4-hydroxy-4-methyl-piperidine-1-carbonyl)phenyl]-1H-pyrrolo[2,3-b]pyridin-4-yl]phenyl]-2,3-dihydro-1,4-benzoxazepin-5-one]
22	85	CCN1CC=C(c2cc3c(-c4cccc(N5CCOc6cc(C7CC7)cc(F)c6C5=O)c4CO)ccnc3[nH]2)CC1 [Example R-3, 8-cyclopropyl-4-[3-[2-(1-ethyl-3,6-dihydro-2H-pyridin-4-yl)-1H-pyrrolo[2,3-b]pyridin-4-yl]-2-(hydroxymethyl)phenyl]-6-fluoro-2,3-dihydro-1,4-benzoxazepin-5-one]
7	104	CC(C)N1CC(n2cnc(-c3cc4c(-c5cccc(N6CCOc7cc(C8CC8)ccc7C6=O)c5CO)ccnc4[nH]3)c2)C1 [Example P-9, 8-cyclopropyl-4-[2-(hydroxymethyl)-3-[2-[1-(1-isopropylazetidin-3-yl)imidazol-4-yl]-1H-pyrrolo[2,3-b]pyridin-4-yl]phenyl]-2,3-dihydro-1,4-benzoxazepin-5-one]
9	85	O=C1c2ccc(C3CC3)cc2OCCN1c1cccc(-c2ccnc3[nH]c(-c4ccc(CN5CCS(=O)(=O)CC5)cn4)cc23)c1CO [Example I-8, 8-cyclopropyl-4-[3-[2-[5-[(1,1-dioxo-1,4-thiazinan-4-yl)methyl]-2-pyridyl]-1H-pyrrolo[2,3-b]pyridin-4-yl]-2-(hydroxymethyl)phenyl]-2,3-dihydro-1,4-benzoxazepin-5-one]
2	23	CCN1CCN(Cc2ccc(-c3cc4c(-c5cccc(N6CCOc7cc(C8CC8)ccc7C6=O)c5CO)ccnc4[nH]3)nc2)CC1 [Example I-4, 8-cyclopropyl-4-[3-[2-[5-[(4-ethylpiperazin-1-yl)methyl]-2-pyridyl]-1H-pyrrolo[2,3-b]pyridin-4-yl]-2-(hydroxymethyl)phenyl]-2,3-dihydro-1,4-benzoxazepin-5-one]
5	14	CN1CCN(Cc2ccc(-c3cc4c(-c5cccc(N6CCOc7cc(C8CC8)ccc7C6=O)c5CO)ccnc4[nH]3)nc2)CC1 [Example I-1, 8-cyclopropyl-4-[2-(hydroxymethyl)-3-[2-[5-[(4-methylpiperazin-1-yl)methyl]-2-pyridyl]-1H-pyrrolo[2,3-b]pyridin-4-yl]phenyl]-2,3-dihydro-1,4-benzoxazepin-5-one]
3.6	11	CC(=O)N1CC=C(c2cc3c(-c4cccc(N5CCOc6cc(C7CC7)cc(F)c6C5=O)c4CO)ccnc3[nH]2)CC1 [Example P-24, 4-[3-[2-(1-acetyl-3,6-dihydro-2H-pyridin-4-yl)-1H-pyrrolo[2,3-b]pyridin-4-yl]-2-(hydroxymethyl)phenyl]-8-cyclopropyl-6-fluoro-2,3-dihydro-1,4-benzoxazepin-5-one]
1.7	5.4	O=C(N1CC=C(c2cc3c(-c4cccc(N5CCOc6cc(C7CC7)cc(F)c6C5=O)c4CO)ccnc3[nH]2)CC1)N1CCOCC1 [Example P-18, 8-cyclopropyl-6-fluoro-4-[2-(hydroxymethyl)-3-[2-[1-(morpholine-4-carbonyl)-3,6-dihydro-2H-pyridin-4-yl]-1H-pyrrolo[2,3-b]pyridin-4-yl]phenyl]-2,3-dihydro-1,4-benzoxazepin-5-one]
5	54	CN1CC(Oc2ccc(-c3cc4c(-c5cccc(N6CCOc7cc(C8CC8)ccc7C6=O)c5CO)ncnc4[nH]3)cc2)C1 [Example G-2, 8-cyclopropyl-4-[2-(hydroxymethyl)-3-[6-[4-(1-methylazetidin-3-yl)oxyphenyl]-7H-pyrrolo[2,3-d]pyrimidin-4-yl]phenyl]-2,3-dihydro-1,4-benzoxazepin-5-one]

Continued, molecule first:

SMILES	IC50 [1] [nM]	IC50 (mouse splenocytes) [nM]
CN1CCN(c2ccc(-c3cc4c(-c5cccc(N6CCOc7cc(C8CC8)ccc7C6=O)c5CO)ccnc4[nH]3)cn2)CC1 [Example D-11, 8-cyclopropyl-4-[2-(hydroxymethyl)-3-[2-[6-(4-methylpiperazin-1-yl)-3-pyridyl]-1H-pyrrolo[2,3-b]pyridin-4-yl]phenyl]-2,3-dihydro-1,4-benzoxazepin-5-one]	14	80
CN1CCC(n2cc(-c3cc4c(-c5cccc(-n6ncc7cc(C8CC8)ccc7c6=O)c5CO)ncnc4[nH]3)cn2)CC1 [Example D-9]	2	33
CN1CCN(Cc2ccc(-c3cc4c(-c5cccc(-n6ncc7cc(C8CC8)ccc7c6=O)c5CO)ncnc4[nH]3)cc2)CC1 [Example B-10, 6-cyclopropyl-2-[2-(hydroxymethyl)-3-[6-[4-[(4-methylpiperazin-1-yl)methyl]phenyl]-7H-pyrrolo[2,3-d]pyrimidin-4-yl]phenyl]phthalazin-1-one]	2	20
CC1(O)CCC(n2cc(-c3cc4c(-c5cccc(N6CCOc7cc(C8CC8)ccc7C6=O)c5CO)ccnc4[nH]3)cn2)CC1 (stereo not shown) [Example F-3, 8-cyclopropyl-4-[2-(hydroxymethyl)-3-[2-[1-(4-hydroxy-4-methyl-cyclohexyl)pyrazol-4-yl]-1H-pyrrolo[2,3-b]pyridin-4-yl]phenyl]-2,3-dihydro-1,4-benzoxazepin-5-one]	3.8	92
CCN1CCN(Cc2ccc(-c3cc4c(-c5cccc(N6CCOc7cc(C8CC8)ccc7C6=O)c5CO)ccnc4[nH]3)cc2)CC1 [Example B-16, 8-cyclopropyl-4-[3-[2-[4-[(4-ethylpiperazin-1-yl)methyl]phenyl]-1H-pyrrolo[2,3-b]pyridin-4-yl]-2-(hydroxymethyl)phenyl]-2,3-dihydro-1,4-benzoxazepin-5-one]	4	17
O=C1c2c(F)cc(C3CC3)cc2OCCN1c1cccc(-c2ccnc3[nH]c(-c4cnn(C5CCN(C6COC6)CC5)c4)cc23)c1CO [Example D-14, 8-cyclopropyl-6-fluoro-4-[2-(hydroxymethyl)-3-[2-[1-[1-(oxetan-3-yl)-4-piperidyl]pyrazol-4-yl]-1H-pyrrolo[2,3-b]pyridin-4-yl]phenyl]-2,3-dihydro-1,4-benzoxazepin-5-one]	1.7	8
